Measurements from patent US10760052B2, “Method of inhibiting tau phosphorylation” (priority 2012, dated 2020).
Where two headings read alike, the source gives them in different places.

Biological target: T1, mu opiate receptor (MOR) (Rattus norvegicus, UniProt P33535)
T1 construct: from tissue; host or cells: striatum (membrane preparation)
Assay type: biochemical
Conditions: for [35S]GTPγS binding, FLNA-Binding Compound as Agonist at 0.1 μM: 0.1 μM compound; for [35S]GTPγS binding, FLNA-Binding Compound as Agonist at 0.1 μM / [35S]GTPγS binding, FLNA-Binding Compound as Agonist at 1 μM: striatal membranes; for [35S]GTPγS binding, FLNA-Binding Compound as Agonist at 0.1 μM / [35S]GTPγS binding, FLNA-Binding Compound as Agonist at 1 μM + BFNA / [35S]GTPγS binding, FLNA-Binding Compound as Agonist at 1 μM: Series C-2; for [35S]GTPγS binding, FLNA-Binding Compound as Agonist at 1 μM + BFNA: 1 μM compound + 1 μM β-FNA (selective MOR antagonist); for [35S]GTPγS binding, FLNA-Binding Compound as Agonist at 1 μM: 1 μM compound
Method: To assess the mu opiate receptor (MOR) agonist activity of positive compounds from the FLNA screening, compounds were tested in a [^35S]GTPγS binding assay using striatal membranes. […] This assay measures a functional consequence of receptor occupancy at one of the earliest receptor-mediated events. The assay permits for traditional pharmacological parameters of potency, efficacy and antagonist affinity, with the advantage that agonist measures are not subjected to amplification or other modulation that may occur when analyzing parameters further downstream of the receptor.
Thus, striatal tissue was homogenized in 10 volumes of ice cold 25 mM HEPES buffer, pH 7.4, which contained 1 mM EGTA, 100 mM sucrose, 50 μg/ml leupeptin, 0.04 mM PMSF, 2 μg/ml soybean trypsin inhibitor and 0.2% 2-mercaptoethanol. The homogenates were centrifuged at 800×g for 5 minutes and the supernatants were centrifuged at 49,000×g for 20 minutes.
The resultant striatal membrane preparation (200 μg) was admixed and maintained (incubated) at 30° C. for 5 minutes in reaction buffer as above that additionally contained 1 mM MgCl2 and 0.5 nM [^35S]GTPγS (0.1 μCi/assay, PerkinElmer Life and Analytical Sciences) in a total volume of 250 μl and continued for 5 minutes in the absence or presence of 0.1-10 μM of an assayed compound of interest. The reaction was terminated by dilution with 750 μl of ice-cold reaction buffer that contained 20 mM MgCl2 and 1 mM EGTA and immediate centrifugation at 16,000×g for 5 minutes.
Normal rabbit serum (1 μl) was added to 1 ml of lysate and incubated at 25° C. for 30 minutes. Nonspecific immune complexes were removed by incubation with 25 μl of protein A/G-conjugated agarose beads at 25° C. for 30 minutes followed by centrifugation at 5,000×g at 4° C. for 5 minutes. The supernatant was divided and separately incubated at 25° C. for 30 minutes with antibodies raised against Gαo proteins (1:1,000 dilutions).
The immunocomplexes so formed were collected by incubation at 25° C. for 30 minutes with 40 μl of agarose-conjugated protein A/G beads and centrifugation at 5,000×g at 4° C. for 5 minutes. The pellet was washed and suspended in buffer containing 50 mM Tris-HCl, pH 8.0, and 1% NP-40. The radioactivity in the suspension was determined by liquid scintillation spectrometry.

[1] = [35S]GTPγS binding to Gαo in striatal membranes, compound 0.1 μM
[2] = [35S]GTPγS binding to Gαo in striatal membranes, compound 1 μM
[3] = [35S]GTPγS binding to Gαo in striatal membranes, compound 1 μM plus 1 μM β-funaltrexamine (MOR antagonist)

T1 sequence (P33535 whole entry): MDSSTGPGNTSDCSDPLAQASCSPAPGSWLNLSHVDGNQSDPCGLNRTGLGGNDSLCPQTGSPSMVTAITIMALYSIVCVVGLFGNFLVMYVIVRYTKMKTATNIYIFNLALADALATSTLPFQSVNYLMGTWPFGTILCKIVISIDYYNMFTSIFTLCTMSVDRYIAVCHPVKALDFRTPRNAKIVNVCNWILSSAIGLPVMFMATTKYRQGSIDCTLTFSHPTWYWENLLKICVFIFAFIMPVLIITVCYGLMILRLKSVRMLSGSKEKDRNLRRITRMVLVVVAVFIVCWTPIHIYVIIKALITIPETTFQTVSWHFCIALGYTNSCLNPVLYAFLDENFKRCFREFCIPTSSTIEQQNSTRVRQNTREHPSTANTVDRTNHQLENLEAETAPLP

Structure (SMILES)	% DAMGO (0.1 μM)	% DAMGO (1 μM)	% DAMGO + BFNA	[35S]GTPγS binding, FLNA-Binding Compound as Agonist at 0.1 μM	[35S]GTPγS binding, FLNA-Binding Compound as Agonist at 1 μM + BFNA	[35S]GTPγS binding, FLNA-Binding Compound as Agonist at 1 μM	Concentration of FLNA-Binding Compound as Agonist 0.1 μM [1]	Concentration of FLNA-Binding Compound as Agonist 1 μM [2]	Concentration of FLNA-Binding Compound as Agonist 1 μM + BFNA [3]	Concentration of FLNA-Binding Compound as Agonist 0.1 μM	Concentration of FLNA-Binding Compound as Agonist 1 μM	Concentration of FLNA-Binding Compound as Agonist 1 μM + BFNA
O=C1CN(C2CCc3ccccc3C2)C2(CCN(S(=O)(=O)c3ccccc3)CC2)N1 (stereo not drawn) [C0136M(P5)]	93.4%	95.6%	153.6%	176.8%	74.5%	237.3%	–	–	–	–	–	–
O=C1CN(Cc2ccccc2)C2(CCN(C3CCCCC3)CC2)N1 [C0137M (P7)]	95.6%	78.1%	115.1%	180.8%	55.8%	193.8%	–	–	–	–	–	–
COc1ccccc1CC(=O)CC1c2c(cc3c(c2OC)OCO3)CC[N+]1(C)C (stereo not drawn) [Compound 5009]	66.9%	83.2%	181.5%	–	–	–	128.5%	270.4%	87.5%	–	–	–
COc1ccc(S(=O)(=O)N2CCC3(CC2)OCCN3S(=O)(=O)c2ccc(OC)cc2)cc1 [Compound 7866]	79.3%	94.8%	129.5%	–	–	–	152.3%	308.2%	62.4%	–	–	–
CC1CCC(C(C)C)C(OCC(O)CN2CCCC2)C1 (stereo not drawn) [Compound A0001]	63.1%	78.9%	83.8%	–	–	–	94.3%	181.7%	22.2%	–	–	–
CC1CCC(C(C)C)C(OCC(O)CN2CCSC2)C1 (stereo not drawn) [Compound A0002]	104.1%	86.6%	24.5%	–	–	–	155.6%	199.4%	6.5%	–	–	–
CC1CCC(C(C)C)C(OCC(O)CN2CCSCC2)C1 (stereo not drawn) [Compound A0003]	118.3%	119.9%	64.5%	–	–	–	–	–	–	176.8%	276.0%	17.1%
CC1CCC(C(C)C)C(OCC(O)CN2CCOCC2)C1 (stereo not drawn) [Compound A0004]	55.2%	55.6%	130.9%	–	–	–	97.4%	144.2%	86.0%	–	–	–
CC1CCC(C(C)C)C(OCC(O)CN2CCCCC2)C1 (stereo not drawn) [Compound A0005]	105.0%	89.6%	45.1%	–	–	–	179.7%	239.2%	23.5%	–	–	–
CC1CCN(CC(O)COC2CC(C)CCC2C(C)C)CC1 (stereo not drawn) [Compound A0006]	113.8%	82.9%	68.7%	–	–	–	170.0%	190.9%	18.2%	–	–	–
CC1CCC(C(C)C)C(OCC(O)CN2CCCCC2C)C1 (stereo not drawn) [Compound A0007]	68.3%	96.4%	152.5%	–	–	–	102.0%	221.9%	40.4%	–	–	–
CC1CCC(C(C)C)C(OCC(O)CN2CC(C)CC(C)C2)C1 (stereo not drawn) [Compound A0008]	109.6%	102.1%	505.3%	–	–	–	163.8%	235.0%	133.9%	–	–	–
CC1CCC(C(C)C)C(OCC(O)CN2CCN(C)CC2)C1 (stereo not drawn) [Compound A0009]	39.8%	48.7%	142.9%	–	–	–	70.2%	126.4%	93.9%	–	–	–
CC1CCC(C(C)C)C(OCC(O)CN2CCCN(C)CC2)C1 (stereo not drawn) [Compound A0010]	161.9%	119.5%	365.3%	–	–	–	277.2%	319.0%	190.3%	–	–	–
CC1CCC(C(C)C)C(OCC(O)CN2CCN(CCN3CCOCC3)CC2)C1 (stereo not drawn) [Compound A0011]	158.2%	124.9%	177.4%	–	–	–	236.3%	287.5%	47.0%	–	–	–
COc1ccc(N2CCN(CC(O)COC3CC(C)CCC3C(C)C)CC2)c(OC)c1 (stereo not drawn) [Compound A0012]	99.9%	80.7%	461.9%	–	–	–	149.3%	185.7%	122.4%	–	–	–
CC1CCC(C(C)C)C(OCC(O)CN2CCCCCC2)C1 (stereo not drawn) [Compound A0013]	57.8%	63.6%	131.1%	–	–	–	102.1%	164.8%	86.1%	–	–	–
CC1CCC(C(C)C)C(OCC(O)CN2CCCCCCC2)C1 (stereo not drawn) [Compound A0014]	83.2%	67.5%	214.3%	–	–	–	147.0%	174.9%	140.8%	–	–	–
CC1CCC(C(C)C)C(OCC(O)CN2CCC2)C1 (stereo not drawn) [Compound A0015]	64.8%	56.2%	120.0%	–	–	–	110.9%	150.1%	62.5%	–	–	–
CC1CN(CC(O)COC2CCCCC2)CC(C)O1 (stereo not drawn) [Compound A0017]	96.9%	100.4%	187.9%	–	–	–	161.9%	246.0%	65.2%	–	–	–
